From ChEMBL document CHEMBL5131534, “Identification of 2-Pyridinylindole-Based Dual Antagonists of Toll-like Receptors 7 and 8 (TLR7/8)” (ACS Med Chem Lett, 2022) come the findings set out here.

Data set [1] in a line: Oral bioavailability in mouse blood at 15 mg/kg. Type of data set: ADME, organism-based.
The target in a further data set is T1, Toll-like receptor 3 (Homo sapiens, UniProt O15455).
T1 sequence (O15455 whole entry): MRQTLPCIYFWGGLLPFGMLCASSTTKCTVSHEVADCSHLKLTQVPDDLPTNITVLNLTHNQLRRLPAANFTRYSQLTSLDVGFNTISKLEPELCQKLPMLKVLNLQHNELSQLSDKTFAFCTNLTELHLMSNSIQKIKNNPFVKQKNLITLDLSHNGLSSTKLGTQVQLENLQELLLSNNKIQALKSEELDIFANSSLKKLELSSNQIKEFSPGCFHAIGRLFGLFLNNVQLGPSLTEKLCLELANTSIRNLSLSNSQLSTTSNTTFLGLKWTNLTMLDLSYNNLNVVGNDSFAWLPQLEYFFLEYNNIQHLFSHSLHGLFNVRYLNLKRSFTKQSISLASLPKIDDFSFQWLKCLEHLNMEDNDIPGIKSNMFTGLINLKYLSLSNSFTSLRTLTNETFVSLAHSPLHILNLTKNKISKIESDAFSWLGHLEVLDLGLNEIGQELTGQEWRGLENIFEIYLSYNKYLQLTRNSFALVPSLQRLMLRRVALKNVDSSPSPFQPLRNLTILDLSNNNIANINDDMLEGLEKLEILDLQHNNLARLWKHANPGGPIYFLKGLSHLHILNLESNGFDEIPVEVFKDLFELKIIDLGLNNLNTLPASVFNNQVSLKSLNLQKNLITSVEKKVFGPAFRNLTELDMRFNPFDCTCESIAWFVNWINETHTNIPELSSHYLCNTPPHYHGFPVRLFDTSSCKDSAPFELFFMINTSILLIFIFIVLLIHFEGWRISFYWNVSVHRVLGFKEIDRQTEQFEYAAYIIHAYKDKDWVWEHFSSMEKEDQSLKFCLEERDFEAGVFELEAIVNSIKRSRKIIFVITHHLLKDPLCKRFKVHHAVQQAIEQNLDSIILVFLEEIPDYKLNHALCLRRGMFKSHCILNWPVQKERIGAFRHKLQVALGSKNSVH
The data set can be described thus: Antagonist activity at […] stimulated human TRL3 overexpressed in HEK293 cells assessed as inhibition of NF kappa B/Ap-1 activation preincubated with compound for 30 mins followed by […] stimulation measured after 22 hrs by SEAP reporter assay. Type of data set: cell-based. Background: A reporter such as luciferase makes a cellular process visible.

The next data set concerns the target T2, Toll-like receptor 9 (Mus musculus, UniProt Q9EQU3).
T2 sequence (Q9EQU3 whole entry): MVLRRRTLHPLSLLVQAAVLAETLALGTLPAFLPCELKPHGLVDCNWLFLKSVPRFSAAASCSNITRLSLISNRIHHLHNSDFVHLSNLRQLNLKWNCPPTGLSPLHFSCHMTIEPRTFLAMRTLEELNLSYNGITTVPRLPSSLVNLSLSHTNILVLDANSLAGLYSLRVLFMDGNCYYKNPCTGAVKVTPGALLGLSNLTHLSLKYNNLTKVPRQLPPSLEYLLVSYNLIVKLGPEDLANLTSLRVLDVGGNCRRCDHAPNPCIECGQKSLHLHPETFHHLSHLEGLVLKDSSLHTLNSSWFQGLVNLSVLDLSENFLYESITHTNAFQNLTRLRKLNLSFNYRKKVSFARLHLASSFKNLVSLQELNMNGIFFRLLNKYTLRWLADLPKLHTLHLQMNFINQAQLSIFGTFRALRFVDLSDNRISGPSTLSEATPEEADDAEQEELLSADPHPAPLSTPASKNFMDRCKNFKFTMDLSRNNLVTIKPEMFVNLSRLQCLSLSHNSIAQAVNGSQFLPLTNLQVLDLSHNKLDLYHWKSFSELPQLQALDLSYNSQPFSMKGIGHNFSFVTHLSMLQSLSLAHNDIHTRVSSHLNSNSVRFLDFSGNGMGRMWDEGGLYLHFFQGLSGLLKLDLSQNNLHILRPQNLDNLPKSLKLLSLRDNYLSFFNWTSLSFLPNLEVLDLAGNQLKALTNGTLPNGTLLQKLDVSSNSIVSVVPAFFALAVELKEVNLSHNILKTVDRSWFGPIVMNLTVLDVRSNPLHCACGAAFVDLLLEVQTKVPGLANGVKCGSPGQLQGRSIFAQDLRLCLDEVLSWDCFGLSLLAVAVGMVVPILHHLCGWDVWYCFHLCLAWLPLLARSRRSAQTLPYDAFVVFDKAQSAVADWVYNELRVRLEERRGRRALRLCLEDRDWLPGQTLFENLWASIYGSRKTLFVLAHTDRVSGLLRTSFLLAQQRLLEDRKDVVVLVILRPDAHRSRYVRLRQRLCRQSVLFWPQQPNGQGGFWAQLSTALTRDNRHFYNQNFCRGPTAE
Kind of data set: Antagonist activity at ODN-2216 stimulated TLR9 in mouse whole blood assessed as inhibition of IL-6 production by ELISA analysis. In kind it is tissue-based. For orientation: An ELISA detects its analyte on a solid surface through an enzyme-linked reagent.

The nature of data set [2]: Plasma protein binding in rat assessed as free fraction. Type of data set: ADME, cell-free.
Data set [3] in a line: Tmax in mouse blood at 15 mg/kg, po. In kind it is ADME, organism-based.
Data set [4] is described as follows: Drug concentration in mouse blood at 15 mg/kg, po measured at 24 hrs. In kind it is ADME, organism-based. The settings on record: read-out: Ct.
Data set [5] can be described thus: AUClast in mouse blood at 5 mg/kg, iv. Type of data set: ADME, organism-based. Set-up: time 0 - last, dose 5 mg/kg, route iv.
Data set [6] can be described thus: Clearance in mouse blood at 5 mg/kg, iv. In kind it is ADME, organism-based.
Data set [7] in a line: Half life in mouse blood at 5 mg/kg, iv. In kind it is ADME, organism-based.
Data set [8] can be described thus: In vivo antagonist activity at TRL7 in C57BL/6 mouse assessed as inhibition of gardiquimod stimulated IL-6 production at 0.03 mg/kg,po for 30 minutes and followed by gardiquimod addition measured after 90 mins by ELISA analysis relative to control. In kind it is functional. Further details: scale not given: the % may be the effect or the level left. The settings on record: time 120 min, 2 h.

Data set [9] is described as follows: In vivo antagonist activity at TRL9 in C57BL/6 mouse assessed as inhibition of ODN1585 stimulated IL-6 production at 10 mg/kg,po for 30 minutes and followed by ODN1585 addition measured after 90 mins by ELISA analysis relative to control. As to conditions: time 120 min, 2 h. Type of data set: functional. Further details: scale not given: the % may be the effect or the level left.

For data set [10], the system named is Mus musculus. Kind of data set: Anti-inflammatory activity against MRL/Ipr Systemic lupus erythematosus mouse model assessed as inhibition of proteinuria at 1 mg/kg, po administered for 8 weeks and measured 24 hrs post final dose relative to control. Type of data set: functional. Further details: scale not given: the % may be the effect or the level left. The settings on record: time 1368 hrs.

Data set [11] relates to Mus musculus. Kind of data set: Anti-inflammatory activity against MRL/Ipr Systemic lupus erythematosus mouse model assessed as inhibition of urinary NGAL at 0.1 mg/kg, po administered for 8 weeks and measured 24 hrs post final dose relative to control. In kind it is functional. Further details: scale not given: the % may be the effect or the level left. The settings on record: time 1368 hrs.

Data set [12] relates to Mus musculus. The data set can be described thus: Anti-inflammatory activity against MRL/Ipr Systemic lupus erythematosus mouse model assessed as inhibition of anti-Sm/RNP Ab titer at 20 mg/kg, po administered for 8 weeks and measured 24 hrs post final dose relative to control. In kind it is functional. Further details: scale not given: the % may be the effect or the level left. As to conditions: time 1368 hrs.

Data set [13] deals with Mus musculus. Kind of data set: Anti-inflammatory activity against MRL/Ipr Systemic lupus erythematosus mouse model assessed as inhibition of anti-dsDNA Ab titer at 5 mg/kg, po administered for 8 weeks and measured 24 hrs post final dose relative to control. In kind it is functional. Further details: scale not given: the % may be the effect or the level left. As to conditions: time 1368 hrs.

For orientation: bioavailability means dose-corrected exposure relative to a reference, in per cent. A word on the IC50: it is the concentration at which inhibition is half-maximal. Usually fraction unbound stands for the share of the substance not bound to proteins or other matrix. The term Tmax denotes the time from dosing to the highest level. Usually AUC(0-t) stands for exposure summed from dosing to a finite time, without extrapolation to infinity. As a reminder, the clearance is a measure of how efficiently the substance is removed, as volume per time. As a reminder, the half-life is the time in which the quantity being followed falls by half.

Each structure is given as a SMILES string.

As for `Cc1cc(-c2[nH]c3ccc(C4CCNCC4)cc3c2C(C)C)cc(C)n1`, the bioavailability in [1] was determined as 58%. The IC50 was more than 10 µM on Toll-like receptor 3 and more than 5 µM at Toll-like receptor 9. In addition, the free fraction (fraction unbound) in data set [2] came out at 0.11. The Tmax in data set [3] turned out to be 5 h. Also, the concentration at 24 h in data set [4] amounted to 22 nM. In [5], this compound showed an AUC(0-t) of 1.58 µM·h. Further, the clearance in data set [6] was 146 mL/min/kg. In addition, the half-life in data set [7] is 9 h. In addition, the Activity in data set [8] stood at 28%; in [9] it was 33%; with Mus musculus [10], 92%; in the data set with Mus musculus [11], 52%; with Mus musculus [12] it was 82%; in the data set on Mus musculus [13] it was 20%.
